Test results reported in patent publication US20030232743A1, “Compositions and methods for darkening the skin” (priority 2002, published 2003).

Test system: Type IV pigmented epidermal equivalents (SkinEthic reconstructed human epidermis; normal human keratinocytes and melanocytes)
Experiment: Darkening in pigmented epidermal equivalents (DOPA and Fontana-Mason staining)
Format: cell-based
Parameters: key to Score DOPA staining (tyrosinase activity): 0: No change in DOPA staining and in melanin deposition; 1: Minimal increase in DOPA staining and/ or in pigment deposition; 2: Increased DOPA staining and/ or in pigment deposition; 3: Strong increase in DOPA staining and/ or in pigment deposition
Conditions: for Score F & M staining (Pigment deposition) / Score DOPA staining (tyrosinase activity): peptides at 100 μM in PBS, treated three or five days, harvested fourth or sixth day; for Score F & M staining (Pigment deposition): sectioned equivalents F&M stained; for Score DOPA staining (tyrosinase activity): whole equivalents DOPA stained; for Overall change of pigmentation (darkening), in words: peptides at 100 μM, compared with UVB irradiation (0.10 J/cm^2)
Experimental: Peptide 1 and Peptide 2 were tested for their ability to induce darkening in pigmented epidermal equivalents. The pigmented epidermal equivalents contain human normal melanocytes, together with normal, human-derived epidermal keratinocytes, which have been cultured to form a multi-layered, highly differentiated model of the human epidermis. Type IV pigmented epidermal equivalents (consists of normal human keratinocytes pooled from variety of phototype skins and normal human melanocytes derived from type IV phototype skin) were treated with test compounds for three or five days and samples were harvested on the fourth or sixth day of the study. The harvested equivalents were stained with DOPA (a substrate for tyrosinase) or with Fontana-Mason (F&M) (Sheenan D C, Hrapckak B B, eds: Theory and practice of Histo-Thchnology (St Louis: C V Mosby, 1980) pp 223-277). F&M staining identifies silver nitrate reducing activity, which, in skin, identifies melanin.
The Epidermal equivalents used were SkinEthic® reconstructed human epidermis from SkinEthic™ Laboratory (Nice, France). UV irradiation was performed with a UVB FS light source in an exposure chamber, with plate covers removed and Phosphate—buffered saline (PBS, from Gibco-BRL, Gaithersburg, Md.) present in the lower chamber. UVB intensity was measured with a UVX radiometer (UVP Inc., San Gabriel, Calif.). Equivalents were treated with 0.1-0.12 J/cm2. […] The peptides were assayed at 100 μM, and were dissolved in PBS.
On the fourth or sixth day of the study, the equivalents were fixed, sectioned and F&M stained, or they were DOPA stained as whole without sectioning, using standard techniques. Images of stained whole or sectioned equivalents were obtained and analyzed with Image Pro Plus 3.0 software (Media Cybernetics, Silver Spring, Md.). Parameters measured were surface area of stained material within melanocyte and keratinocyte and the total surface area of the cells in culture. In all experiments there was no difference between PBS-treated cells and untreated controls. At least three sections per equivalent, three equivalents per experiment were processed. DOPA-stained epidermal equivalents were evaluated for the change in tyrosinase activity. F&M-stained histological sections were evaluated for the change in pigment deposition. Due to the low content of melanin within the equivalent, it was not possible to quantify the level of pigment within melanocytes in F&M stained sections by image analysis. Therefore, we evaluate the pigment change using the scale defined in Table 1.

| Score DOPA staining (tyrosinase activity) | Compound | Score F & M staining (Pigment deposition) | Overall change of pigmentation (darkening), in words |
| --- | --- | --- | --- |
| 1-2 | CC(C)C[C@H](NC(=O)[C@H](CCCN/C(N)=N/[N+](=O)[O-])NCc1ccc(OC(F)(F)F)cc1)C(N)=O [Peptide 2] | 1-2 | able to enhance pigment production |
| 3 | COc1ccc(CN[C@@H](CCCN/C(N)=N/[N+](=O)[O-])C(=O)N[C@@H](CC(C)C)C(N)=O)cc1 [Peptide 1] | 1-2 | darkening levels similar to those produced by UVB irradiation |
